Values quoted from earlier work as cited in patent US20140242195A1, “AUTOMOTIVE SURFACE CONDITIONING SYSTEM” (American Covers, Inc., priority 2013, published 2014).

Conditions: component of the composition

| SMILES | Vapor Pressure (mmHg) |
| --- | --- |
| CCOCCOCCO [CARBITOL, diethylene glycol monoethyl ether] | 0.07 |
| OCC(O)CO [Glycerin] | 0.003 |
